These results are taken from patent US20160031941A1, “TARGETING PEPTIDES THAT BIND S. MUTANS, CONSTRUCTS COMPRISING SUCH PEPTIDES AND USES THEREOF” (priority 2014, published 2016).

Data set [1] deals with S. mutans. As to conditions: Streptococcus mutans.
The subject of data set [2] is B. subtilis. Put plainly: MIC of antimicrobial peptides. It counts as cell-based. The procedure:
(§1) Typically, the in vitro antimicrobial activity of antimicrobial agents is tested using standard NCCLS bacterial inhibition assays, or MIC tests (see, National Committee on Clinical Laboratory Standards “Performance Standards for Antimicrobial Susceptibility Testing,” NCCLS Document M100-S5 Vol. 14, No. 16, December 1994; “Methods for dilution antimicrobial susceptibility test for bacteria that grow aerobically-Third Edition,” Approved Standard M7-A3, National Committee for Clinical Standards, Villanova, Pa.).

Data set [3] has as its system T. rubrum. The experiment in a line: MIC of antimicrobial peptides. It is filed as cell-based. The procedure:
as §1

Data set [4] concerns S. mutans. It is filed as cell-based. As to the method: as §1
The test system of data set [5] is MRSA. The experiment in a line: MIC of antimicrobial peptides. It is filed as cell-based, methicillin resistant Staphylococcus aureus. As to the method:
as §1

In data set [6] the test system is P. aeruginosa. It counts as cell-based. As to the method:
as §1

For data set [7], the system named is E. coli. Put plainly: MIC of antimicrobial peptides. It counts as cell-based. The procedure:
as §1

Data set [8] deals with A. niger. Put plainly: MIC of antimicrobial peptides. It is filed as cell-based. The procedure: as §1
Data set [9] deals with A. baumannii. It counts as cell-based. The procedure:
as §1

Data set [10] deals with C. difficile. It is filed as cell-based. The procedure: as §1
For data set [11], the system named is C. jeikeium. It is filed as cell-based. As to the method:
as §1

Data set [12] relates to S. epidermidis. It counts as cell-based. As to the method:
as §1

Data set [13] deals with S. pneumoniae. It counts as cell-based. The procedure:
as §1

Like-named read-outs stand apart in the source and are kept apart here. Ends that are not written are not given here. Peptide text beside a SMILES is read from it.

By MIC is commonly meant the lowest concentration found to suppress growth.

Take “TLFRLLNRSLTQALGKGGGKNLRIIRKGIHIIKKY-NH2 (C-terminus assumed) [F2F6F10-L2L6L10_C16G2]”: the “% viability remaining” value in data set [1] turned out to be 26%.
In the case of “TLFRLFNRSFTQALGKGGGKNLRIIRKGIHIIKKY-NH2 (C-terminus assumed) [F2-L2_C16G2]”, the “% viability remaining” value in data set [1] is listed as 63%.
Regarding `CC[C@H](C)[C@H](NC(=O)CNC(=O)[C@H](CCCCN)NC(=O)[C@H](CCCNC(=N)N)NC(=O)[C@@H](NC(=O)[C@@H](NC(=O)[C@H](CCCNC(=N)N)NC(=O)[C@H](CC(C)C)NC(=O)[C@H](CC(N)=O)NC(=O)[C@H](CCCCN)NC(=O)CNC(=O)CNC(=O)CNC(=O)[C@H](CCCCN)NC(=O)CNC(=O)[C@H](CC(C)C)NC(=O)[C@H](C)NC(=O)[C@H](CCC(N)=O)NC(=O)[C@@H](NC(=O)[C@H](CCC(N)=O)NC(=O)[C@H](CO)NC(=O)[C@H](CCCNC(=N)N)NC(=O)[C@H](CC(N)=O)NC(=O)[C@H](CCC(N)=O)NC(=O)[C@H](CC(C)C)NC(=O)[C@H](CCCNC(=N)N)NC(=O)[C@H](Cc1ccccc1)NC(=O)[C@H](CCC(N)=O)NC(=O)[C@@H](N)[C@@H](C)O)[C@@H](C)O)[C@@H](C)CC)[C@@H](C)CC)C(=O)N[C@@H](Cc1c[nH]cn1)C(=O)N[C@H](C(=O)N[C@H](C(=O)N[C@@H](CCCCN)C(=O)N[C@@H](CCCCN)C(=O)N[C@@H](Cc1ccc(O)cc1)C(N)=O)[C@@H](C)CC)[C@@H](C)CC` [F7/11/15 sub Q_C16G2], the “% viability remaining” value in [1] is reported as 93%.
In the case of WSRVPGHSDTGWKVWHRW-NH2 [PF-547], the MIC entry in data set [2] was “B. subtilis, 25 μM”; in [3], “T. rubrum, 25 μM”; in [4], 12.5 µM.
With “TQFRLFNRSFTQALGKGGGKNLRIIRKGIHIIKKY-NH2 (C-terminus assumed) [F2 to Q2_C16G2]”, in data set [1], the “% viability remaining” value is 47%.
Consider VLPFPAIPLSRRRACVAAPRPRSRQRAS [PF-168], for which the MIC entry in [5] was “MRSA, 50 μM”.
Consider “TFFRLFNRSFTQALAKGGGKNLRIIRKGIHIIKKY-NH2 (C-terminus assumed) [G15-A15_C16G2]”, for which, in data set [1], the “% viability remaining” value came to 47%.
FIRKFLQKLHL [K-16]: the minimal inhibitory concentration (MIC) result in data set [5] is “MRSA, 25 μM”; in [6], 12.5 µM; in [4] (S. mutans) it was “S. mutans, 8 μM”.
As to MIRIRSPTKKKLNRNSISDWKSNTSGRFFY [PF-283], the minimal inhibitory concentration (MIC) result in [2] is listed as “B. subtilis, 50 μM”; in data set [3] it was “T. rubrum, 50 μM”.
Regarding “TFFRLFNRSQTQALGKGGGKNLRIIRKGIHIIKKY-NH2 (C-terminus assumed) [F10 to Q10_C16G2]”, in data set [1], the “% viability remaining” value stood at 73%.
`CSCC[C@H](N)C(=O)N[C@@H](CCCCN)C(=O)N[C@@H](CCCNC(=N)N)C(=O)N[C@@H](CCCNC(=N)N)C(=O)N[C@@H](CCCNC(=N)N)C(=O)N[C@@H](CS)C(=O)N[C@@H](CC(N)=O)C(=O)N[C@@H](Cc1c[nH]c2ccccc12)C(=O)N[C@@H](CS)C(=O)NCC(=O)N[C@@H](CCCCN)C(=O)N[C@@H](CC(C)C)C(=O)N[C@@H](Cc1ccccc1)C(=O)N[C@@H](Cc1ccc(O)cc1)C(=O)N[C@@H](CC(C)C)C(=O)N[C@@H](CCC(=O)O)C(=O)N[C@@H](CCC(=O)O)C(=O)N[C@@H](CCCCN)C(=O)N[C@@H](CO)C(=O)N[C@@H](CCCCN)C(=O)N[C@@H](CCC(=O)O)C(=O)N[C@@H](C)C(=O)N[C@@H](Cc1ccc(O)cc1)C(=O)N[C@@H](CS)C(=O)N[C@@H](CS)C(=O)N[C@@H](CCCCN)C(=O)N[C@@H](CCC(=O)O)C(=O)N[C@@H](CS)C(=O)N[C@@H](CCCNC(=N)N)C(=O)N[C@@H](CCCCN)C(=O)N[C@@H](CCCCN)C(=O)N[C@@H](C)C(=O)N[C@@H](CCCCN)C(=O)N[C@@H](CCCCN)C(=O)N[C@H](C(=O)N[C@@H](CCCCN)C(=O)N[C@@H](CCCCN)C(=O)O)C(C)C` [PF-307] (H-MKRRRCNWCGKLFYLEEKSKEAYCCKECRKKAKKVKK-OH; N-terminus and C-terminus assumed): the MIC result in data set [2] is on record as “B. subtilis, 50 μM”; in [3], “T. rubrum, 50 μM”.
For the compound “TKKIELKRFVDAFVKKSYENYILERELKKLIKAINEELPTK [PF-600]”, the minimum inhibitory concentration (MIC) result in data set [7] is on record as “E. coli, 50 μM”.
For NYAVVSHT [PF-209], the MIC result in [5] is listed as “MRSA, 50 μM”.
As to SLQSQLGPCLHDQRH [PF-448], the minimal inhibitory concentration (MIC) result in [8] is reported as “A. niger, 25 μM”.
On to MRFGSLALVAYDSAIKHSWPRPSSVRRLRM [PF-672], for which the MIC entry in [5] is “MRSA, 1.56 μM”; in data set [8], “A. niger, 3 μM”.
As for “TAFRLANRSATQALGKGGGKNLRIIRKGIHIIKKY-NH2 (C-terminus assumed) [F2/6/10-A2/6/10_C16G2]”, the “% viability remaining” value in data set [1] came out at 78%.
As for YIQFHLNQQPRPKVKKIKIFL-NH2 [PF-531], the MIC result was “A. niger, 25 μM” in data set [8]; “B. subtilis, 25 μM” in data set [2]; “T. rubrum, 50 μM” in data set [3]; 25 µM in data set [9]; 12.5 µM in data set [10]; 6.25 µM in [11]. The MIC in data set [6] came out at 50 µM; in [12] it was 50 µM; in data set [4] it was 12.5 µM.
“LGLTAGVAYAAQPTNQPTNQPTNQPTNQPTNQPTNQPRW-NH2 [PF-520]” gave a minimum inhibitory concentration (MIC) in data set [13] (S. pneumoniae) of 50 µM.
In the case of “TWFRLFNRSFTQALGKGGGKNLRIIRKGIHIIKKY-NH2 (C-terminus assumed) [F2-W2_C16G2]”, in data set [1], the “% viability remaining” value turned out to be 45%.
For the compound RESKLIAMADMIRRRI-NH2 [PF-545], the MIC entry in data set [5] was “MRSA, 50 μM”.
Turning to “GSVIKKRRKRMAKKKHRKLLKKTRIQRRRAGK [PF-527]”, the MIC result in [5] is recorded as “MRSA, 50 μM”; in data set [8], “A. niger, 50 μM”; in data set [3], “T. rubrum, 25 μM”.
With KNKKQTDILEKVKEILDKKKKTKSVGQKLY [PF-538], the MIC result in data set [10] (C. difficile) is reported as “C. difficile, 25 μM”.
As for LSLATFAKIFMTRSNWSLKRFNRL [PF-278], the MIC result in data set [3] is reported as “T. rubrum, 50 μM”.
With “TFFRLLNRSFTQALGKGGGKNLRIIRKGIHIIKKY-NH2 (C-terminus assumed) [F6-L6_C16G2]”, in data set [1], the “% viability remaining” value is 43%.
As to “TFFRLQNRSFTQALGKGGGKNLRIIRKGIHIIKKY-NH2 (C-terminus assumed) [F6 to Q6_C16G2]”, the “% viability remaining” value in [1] was 79%.
Turning to “TFFRLFNRSFTQALDKGGGKNLRIIRKGIHIIKKY-NH2 (C-terminus assumed) [G15-D15_C16G2]”, in data set [1], the “% viability remaining” value is reported as 47%.
Take “FESKILNASKELDKEKKVNTALSFNSHQDFAKAYQNGKI [PF-606]”: the MIC entry is on record as “MRSA, 50 μM” in data set [5]; “E. coli, 50 μM” in data set [7]; “S. mutans, 50 μM” in [4] (S. mutans).
As to KFSDQIDKGQDALKDKLGDL [PF-525], the minimal inhibitory concentration (MIC) entry in [8] is reported as “A. niger, 50 μM”.
For the compound KFQGEFTNIGQSYIVSASHMSTSLNTGK [PF-583], the MIC entry in data set [5] is on record as “MRSA, 50 μM”.
On to VYRKRKSILKIYAKLKGWH [K-2], for which the MIC in [4] is 12.5 µM.
For LSEMERRRLRKRA-NH2 [PF-529], the minimal inhibitory concentration (MIC) entry in data set [8] was “A. niger, 50 μM”; in data set [13], 50 µM.
“TFFRLFNRSFTQALFKGGGKNLRIIRKGIHIIKKY-NH2 (C-terminus assumed) [G15-F15_C16G2]”: the “% viability remaining” value in data set [1] was determined as 29%.
As for `CC[C@H](C)[C@H](NC(=O)CNC(=O)[C@@H](N)CCSC)C(=O)N[C@H](C(=O)N[C@@H](C)C(=O)NCC(=O)N[C@H](C(=O)N[C@H](C(=O)N[C@@H](CCCCN)C(=O)N[C@@H](Cc1ccccc1)C(=O)N[C@H](C(=O)N[C@@H](CCCCN)C(=O)NCC(=O)N[C@@H](CC(C)C)C(=O)N[C@H](C(=O)N[C@@H](CCC(=O)O)C(=O)N[C@@H](CCCCN)C(=O)N[C@@H](Cc1ccccc1)C(=O)N[C@H](C(=O)NCC(=O)N[C@@H](CCCCN)C(=O)O)[C@@H](C)O)[C@@H](C)CC)[C@@H](C)CC)[C@@H](C)CC)[C@@H](C)CC)[C@@H](C)CC` [PF-006], the minimum inhibitory concentration (MIC) entry in [5] is listed as “MRSA, 50 μM”; in data set [2], “B. subtilis, 25 μM”.
In the case of “TFFRLFNRSFTQALGKGGGKNLRIIRKGIHIIKKY-NH2 [C16G2, reference compound]”, in [1], the “% viability remaining” value is “antimicrobial peptide and GGG linker showed 5-18% remaining activity”.
Consider “TFFRLFNRSLTQALGKGGGKNLRIIRKGIHIIKKY-NH2 (C-terminus assumed) [F10-L10_C16G2]”, for which, in data set [1], the “% viability remaining” value is recorded as 30%.
